From patent publication US8748417B2, “Amino-pyrrolidine-azetidine diamides as monoacylglycerol lipase inhibitors” (Janssen Pharmaceutica, NV, priority 2010, dated 2014)
Residue numbers refer to the chain shown, from its start.

Columns and labels:
[1] = tested on: murine model of acute inflammation; conditions: Comelli et al., Brit J Pharmacol, 2007; cited from earlier work
[2] = target: T1, purified wild type MGL (wt-MGLL 6H-11-313) (Homo sapiens, UniProt Q99685); assay: MGL enzyme activity assay (4MU-B cleavage), wild type MGL; type: biochemical; conditions: wild type MGL 5 nM, 4MU-B 10 μM, 37° C.; read-out: MGL wild type inh IC50
T1 construct: purified wild type MGL (wt-MGLL 6H-11-313)
T1 sequence (Q99685 1-303): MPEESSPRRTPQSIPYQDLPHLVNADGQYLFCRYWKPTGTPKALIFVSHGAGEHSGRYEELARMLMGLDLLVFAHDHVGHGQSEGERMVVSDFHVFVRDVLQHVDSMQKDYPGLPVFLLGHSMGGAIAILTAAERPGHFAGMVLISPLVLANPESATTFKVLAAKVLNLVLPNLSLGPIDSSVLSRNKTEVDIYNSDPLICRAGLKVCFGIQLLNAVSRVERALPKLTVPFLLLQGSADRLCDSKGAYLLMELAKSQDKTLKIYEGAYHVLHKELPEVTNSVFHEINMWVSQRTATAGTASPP
Procedure, shortened: (§1)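 Enzyme in 20 mM PIPES pH 7.0, 150 mM NaCl, 0.001% Tween 20 with 4MU-B at 10 μM final and MGL at 5 nM final; compounds 17 to 0.0003 μM final, enzyme added last. Fluorescence (ex 335/em 440 nm) followed at 37° C for 5 min; IC50 from fit of fractional activity versus inhibitor concentration.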

[3] = tested on: MGL (rat brain homogenate); assay: 2-AG accumulation assay in rat brain homogenate; type: biochemical; conditions: compound 1 μM, percent of vehicle 2-AG accumulation
Procedure, shortened: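 Rat brain homogenate was incubated with compound for 15 min at 37° C., after which CaCl2 was added to a final concentration of 10 mM and incubation continued for 15 min at 37° C. in 5 mL total. Reactions were stopped with 6 mL of 2:1 chloroform/methanol, and 2-AG accumulated in the organic phase was quantified by HPLC/MS.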

[4] = tested on: CFA-induced paw radiant heat hypersensitivity; assay: CFA-induced paw radiant heat hypersensitivity; type: in vivo; conditions: rat, 30 mg/kg p.o., 20% HPβCD, last time point 300 min; for inhibition in vivo at 30 mg/kg: po, 5 h, group mean values, read-out: Method 1: peak % reversal; for Method 2: peak % reversal: individual animal values
Method: Each rat was placed in a test chamber on a warm glass surface and allowed to acclimate for approximately 10 min. A radiant thermal stimulus (beam of light) was focused through the glass onto the plantar surface of each hind paw in turn. The thermal stimulus was automatically shut off by a photoelectric relay when the paw was moved or when the cut-off time was reached (20 sec for radiant heat at ˜5 amps). An initial (baseline) response latency to the thermal stimulus was recorded for each animal prior to the injection of complete Freund's adjuvant (CFA). Twenty-four hours following intraplantar CFA injection, the response latency of the animal to the thermal stimulus was re-evaluated and compared to the animal's baseline response time. […] Immediately following the post-CFA latency assessment, the indicated test compound or vehicle was administered orally. Post-compound treatment withdrawal latency was assessed at fixed time intervals, typically 30, 60, 120, 180, and 300 min. • The percent reversal (% R) of hypersensitivity was calculated in one of two different ways: 1) using group mean values or 2) using individual animal values. More specifically: • Method 1. For all compounds, the % R of hypersensitivity was calculated using the mean value for groups of animals at each time point according to the following formula: % reversal=[(group treatment response−group CFA response)/(group baseline response−group CFA response)]×100 • Results are given for the maximum % reversal observed for each compound at any time point tested. • Method 2. For some compounds, the % R of hypersensitivity was calculated separately for each animal according to the following formula: % reversal=[(individual treatment response−individual CFA response)/(individual baseline response−individual CFA response)]×100. • Results are given as a mean of the maximum % reversal values calculated for each individual animal.

[5] = target: T2, purified mutant MGL (mut-MGLL 11-313 L179S L186S) (Homo sapiens, UniProt Q99685, L169S/L176S); assay: MGL enzyme activity assay (4MU-B cleavage), mutant MGL; type: biochemical; conditions: mutant MGL 5 nM, 4MU-B 10 μM, 37° C.; read-out: MGL mutant inh IC50
T2 construct: purified mutant MGL (mut-MGLL 11-313 L179S L186S)
T2 sequence (Q99685 1-303 L169S/L176S): T1 sequence (Q99685 1-303) with L169S, L176S
Procedure, shortened: as §1

IC50 [2] | IC50 [5] | Compound | antinociceptive effect [1] | Rat Brain 2AG % VehCntrl (%) @1 μM [3] | inhibition in vivo at 30 mg/kg [4] | Method 2: peak % reversal [4]
 |  | O=C(Nc1cccc(-c2ccccc2)c1)OC1CCCCC1 [URB602] | showed an antinociceptive effect |  |  | 
15 nM |  | O=C(c1ccc2c(-c3cccc(C(F)(F)F)c3)c[nH]c2c1)N1CC(N[C@H]2CCN(C(=O)c3ccccc3)C2)C1 [Cpd 103, (3S)-1-(Phenylcarbonyl)-N-[1-({3-[3-(trifluoromethyl)phenyl]-1H-indol-6-yl}carbonyl)azetidin-3-yl]pyrrolidin-3-amine] |  | 332% | 28% | 
6 nM |  | O=C(c1ccc2c(ccn2-c2ccc(F)cc2)c1)N1CC(N[C@H]2CCN(C(=O)c3nccs3)C2)C1 [Cpd 159, (3S)-N-(1-{[1-(4-Fluorophenyl)-1H-indol-5-yl]carbonyl}azetidin-3-yl)-1-(1,3-thiazol-2-ylcarbonyl)pyrrolidin-3-amine] |  | 476% | 56.5% | 
16.7 nM | < 5 nM | O=C(c1ccc(-c2cccc(C(F)(F)F)c2)cc1)N1CC(N[C@H]2CCN(C(=O)c3ccccc3)C2)C1 [Cpd 16, (3S)-1-(Phenylcarbonyl)-N-(1-{[3′-(trifluoromethyl)biphenyl-4-yl]carbonyl}azetidin-3-yl)pyrrolidin-3-amine] |  | 220% | 78% | 87.7%
18 nM |  | O=C(c1ccc2c(-c3cccc(C(F)(F)F)c3)c[nH]c2c1)N1CC(N[C@H]2CCN(C(=O)c3nccs3)C2)C1 [Cpd 105, (3S)-1-(1,3-Thiazol-2-ylcarbonyl)-N-[1-({3-[3-(trifluoromethyl)phenyl]-1H-indol-6-yl}carbonyl)azetidin-3-yl]pyrrolidin-3-amine] |  | 812% | 37.2% | 
16.7 nM |  | O=C(c1ccc(-c2cccc(C(F)(F)F)c2)cc1)N1CC(N[C@H]2CCN(C(=O)c3cscn3)C2)C1 [Cpd 114, (3S)-1-(1,3-Thiazol-4-ylcarbonyl)-N-(1-{[3′-(trifluoromethyl)biphenyl-4-yl]carbonyl}azetidin-3-yl)pyrrolidin-3-amine] |  | 311% | 25.1% | 
66.6 nM | 6.3 nM | O=C(c1ccc(-c2cccc(C(F)(F)F)c2)cc1)N1CC(N[C@H]2CN(C(=O)c3ccccc3)CC2F)C1 (single isomer, unassigned) [Cpd 63] |  | 696% | -8.2% | 
6.3 nM |  | Cn1cc(-c2cccc(C(F)(F)F)c2)c2ccc(C(=O)N3CC(N[C@H]4CCN(C(=O)c5nccs5)C4)C3)cc21 [Cpd 162, (3S)-N-[1-({1-Methyl-3-[3-(trifluoromethyl)phenyl]-1H-indol-6-yl}carbonyl)azetidin-3-yl]-1-(1,3-thiazol-2-ylcarbonyl)pyrrolidin-3-amine] |  | 911% | 69.7% | 
16 nM | 18.9 nM | Cc1c(C(=O)N2CC(N[C@H]3CCN(C(=O)c4ccccc4)C3)C2)sc2ccc(-c3ccc(C(F)(F)F)cc3)cc12 [Cpd 40, (3S)-N-[1-({3-Methyl-5-[4-(trifluoromethyl)phenyl]-1-benzothiophen-2-yl}carbonyl)azetidin-3-yl]-1-(phenylcarbonyl)pyrrolidin-3-amine] |  | 1145% | 15.9% | 17.3%
